Source: US6897065B1, “Method for maturation of conifer somatic embryos” (Woody Plant Biotech APS, priority 1999, dated 2005)

Experiments:
[1] = test system: Picea sitchensis cell lines G.1.12, G.1.13; assay: Maturation in embryogenic cultures of Picea sitchensis; format: cell-based; conditions: anti-auxin step as for Picea abies
Method: Two cell lines of Picea sitchensis, G.1.12, G.1.13, initiated from cotyledons from mature embryos were used for the present study. The cultures were initiated and pretreated on BMI-S1 medium as above, but with 1000 mg/L casein hydrolysate and 10 μM 2,4-D. Pretreatment, maturation medium and anti-auxin step as for Picea abies.

[2] = test system: newly established Abies nordmanniana embryogenic cell lines; assay: Maturation in newly established Abies nordmanniana embryogenic cultures; format: cell-based; conditions: 8 weeks maturation, 40 μM ABA and 25 μM PCIB from week 2 to 4; cell lines less than 6 months old
Method: Approximately 50 cell lines were initiated from mature seeds in the same way as cell line G.78.14 (Example 1). The cultures were initiated and maintained on modified half strength BLG medium (See example 1). The cultures were less than 6 months old when they were subjected to maturation. The cultures were plated as described in Example 1. The cultures were subjected to two different maturation protocols. • 1) Maturation for 8 weeks on culture medium comprising 40 μM ABA and 5% PEG-4000. • 2) Maturation for as 1) but from week 2 to 4 the cultures were on culture medium comprising 40 μM ABA and 25 μM PCIB.

[3] = test system: mature somatic embryos of Abies nordmanniana; assay: Germination of mature somatic embryos; conditions: embryos matured with PCIB in the maturation medium
Method: Well-developed mature embryos were collected for cold treatment after about 20 weeks of maturation. The isolated mature embryos were transferred to a nylon filter that was placed on a foam rubber pad in a high Petri dish. A wetted filter paper was placed in the bottom and in the lid of the Petri dish. The Petri dish was closed, sealed with two rounds of polyethylene film, wrapped with aluminium foil, and then placed at 5° C. in the dark for 4 weeks for cold treatment. After cold treatment, the nylon filter with the mature embryos was transferred to BGM-2 medium (Krogstrup et al, 1988). The BGM-2 medium included 20 g/L sucrose, 10 g/L activated charcoal (Merck 5411), and was galled with 3.5 g/L Phytagel (Gellan gum). The Petri dishes were placed in a growth room at 20° C. with a 16 hour photoperiod. After one week of germination, the nylon net was removed and the embryos were placed in direct contact with the medium. After two weeks of germination, embryos with a root were placed vertically with the root submerged in the medium. Later, the germinating embryos were transferred to soil and placed in a controlled greenhouse.

SMILES: CC(C)(Oc1ccc(Cl)cc1)C(=O)O [PCIB, p-Chlorophenoxyisobutyric acid]
- general appearance of the cultures [1]: improved
- proliferation during maturation [1]: proliferation was clearly reduced
- production of mature somatic embryos [2]: almost all cell lines produced high numbers of mature somatic embryos
- embryos that developed both shoot and root on germination [3]: ~100%
